What was measured:
Mu-type opioid receptor [1] = target: T1, Mu-type opioid receptor (Homo sapiens, UniProt P35372); assay: Displacement of [3H]-DAMGO from human HA-tagged mu-opioid receptor expressed in HEK293 cells after 90 mins by liquid scintillation counting analysis; assay type: cell-based
Mu-type opioid receptor [2] = target: T1, Mu-type opioid receptor; assay: Agonist activity at human mu-opioid receptor expressed in HEK293 cells coexpressing delta6-Galphaqi4-myr assessed as induction of intracellular calcium flux after 48 hrs by FLIPR assay; assay type: functional, cell-based
Mu-type opioid receptor [3] = target: T1, Mu-type opioid receptor; assay: Agonist activity at human mu-opioid receptor expressed in HEK293 cell membranes after 1 hr by [35S]-GTPgammaS binding assay; assay type: functional

T1 sequence (P35372 whole entry): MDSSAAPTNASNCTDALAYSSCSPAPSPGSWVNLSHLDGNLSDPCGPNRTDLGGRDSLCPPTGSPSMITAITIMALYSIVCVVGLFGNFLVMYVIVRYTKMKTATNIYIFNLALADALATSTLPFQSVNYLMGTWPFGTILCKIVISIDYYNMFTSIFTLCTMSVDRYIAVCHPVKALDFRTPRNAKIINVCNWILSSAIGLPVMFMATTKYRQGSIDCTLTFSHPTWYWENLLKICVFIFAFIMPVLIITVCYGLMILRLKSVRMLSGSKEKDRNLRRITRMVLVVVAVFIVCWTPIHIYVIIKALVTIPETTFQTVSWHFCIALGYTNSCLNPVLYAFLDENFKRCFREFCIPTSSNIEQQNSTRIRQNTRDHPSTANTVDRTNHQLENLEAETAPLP

For `O=C(N[C@@H]1CC[C@@]2(O)[C@H]3Cc4ccc(O)c5c4[C@@]2(CCN3CC2CC2)[C@H]1O5)c1ccc2ccccc2c1`, the Ki (Mu-type opioid receptor [1]) was 0.0013 nM, the EC50 (Mu-type opioid receptor [2]) was greater than 1000 nM and the EC50 (Mu-type opioid receptor [3]) was 0.3 nM.

From ChEMBL document CHEMBL4028804, “The Necessary Nitrogen Atom: A Versatile High-Impact Design Element for Multiparameter Optimization” (J Med Chem, 2017)
